# Assay results taken from patent US20250195551A1 (L4 BIO LLC, priority 2023, published 2025).
# Experiment: Pharmacokinetic profiles of Ivermectin B1a in Sprague Dawley rat plasma after IV and oral administration
# Type: in vivo, Sprague Dawley rats
# Details: Ivermectin B1a in SD rat plasma; single IV 2 mg/kg; fasting; male
# Description: Thirty-six male Sprague Dawley rats were randomly assigned into four groups, with nine male rats in each group. All animals in all groups are fasted overnight prior to the experimental date.
# Blood samples were collected from 6 of 9 animals per group at 0.5, 1, 2, 3, 4, 6, 8, 24, 72, 120, 168 hours post-dose.
substance,measurement,value
ivermectin,AUC(0-t),8259.31 ± 1032.95 ng·h/mL
same,AUC(0-∞),8273.53 ng·h/mL
same,Cmax,1722.67 ng/mL
same,MRT(0-t),10.58 h
same,MRT(0-∞),10.81 h
same,T1/2,14.82 ± 0.72 h
same,Tmax,0.50 h
